Data reported in PubChem BioAssay AID179 (DTP/NCI, 2004).
Activity calls are given as the source filed them.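 Rule for the calls: active = compounds giving half or more protection of infected cells from virus-caused growth loss, again on retest; inactive = the rest.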 Where a SMILES comes first, the peptide text is derived from it.

System: CEM cells HIV-1 protection, formazan growth assay
Experiment: NCI AIDS Antiviral Assay
Conditions: for IC50: measured here: growth of uninfected CEM cells
In short: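 Category rules: moderately active means at least 50% protection on retest, and confirmed active means 100% protection reproducibly. The underlying data came from a formazan growth assay in HIV-1-infected CEM cells.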

SMILES | outcome | EC50 | IC50
CCOC(=O)c1sc2c(C(=O)OCC)c3cc(C)ccn3c2c1N | inactive | – | –
COc1ccc2ccccc2c1CN1CCOCCOCCN(Cc2c(OC)ccc3ccccc23)CCOCCOCC1 | – | > 8.71 µM | 4.9 µM
O=[N+]([O-])/C(C(Cl)=C(Cl)Cl)=C1/OCCS1 | – | > 200 µM | 107 µM
CC(C)=[CH][Sb]([Br])([CH]=C(C)C)([CH]=C(C)C)[CH]=C(C)C | – | > 589 µM | 3.02 µM
Clc1nc(Cl)nc(N2CCCc3ccccc32)n1 | – | > 200 µM | 3.89 µM
O=C(Cn1ccnc1[N+](=O)[O-])c1ccc(F)cc1 | – | > 724 µM | 339 µM
CC(=O)OCC1OC(n2c(Br)nc3c2c(=O)n(C)c(=O)n3C)C(OC(C)=O)C1OC(C)=O (centres undefined) | – | > 200 µM | 69.2 µM
CCCCI(O)OS(=O)(=O)c1ccc(C)cc1 | inactive | – | –
CCC1(O)C(=O)c2ccccc2N(c2ccccc2)C1=O (centres undefined) | – | > 200 µM | > 200 µM
CC(C)C(N)S(=O)(=O)O (centres undefined) | – | > 200 µM | > 200 µM
CNCCSS(=O)(=O)CCNC | – | 214 µM | 457 µM
C#CC1(O)CCC2C3CCC4=Cc5oncc5CC4(C)C3CCC21C (centres undefined) | – | > 200 µM | 39.8 µM
COC(=O)C(C(=O)C(=O)Nc1ccccc1C#N)c1nc2ccc([N+](=O)[O-])cc2[nH]c1=O (centres undefined) | – | > 16.6 µM | > 16.6 µM
CC(=O)c1ccc(N=NN2CCCC2)cc1 | – | > 200 µM | 89.1 µM
CC(=O)N(CN1C(=O)CCC1C(=O)O)c1ccccc1 (centres undefined) | inactive | – | –
Cc1cn(C2CC=C(CO)CC2)c(=O)[nH]c1=O (centres undefined) | – | > 1050 µM | > 1050 µM
O=C1C(=O)N(c2ccc(Cl)cc2Cl)C(=O)C(=O)C1c1nc2ccccc2o1 | – | > 85.1 µM | > 85.1 µM
COc1ccc2c(O)c(C)c(=O)n(C)c2c1 | – | > 200 µM | > 200 µM
CCOC(=O)Nc1nn(-c2ccc3ccccc3n2)c(=O)[nH]1 | – | > 63.1 µM | 10 µM
CN1CCN(CCCCN2c3ccccc3Sc3ccc(C(=O)c4ccccc4)cc32)CC1 | – | > 100 µM | 4.47 µM
O=C(O)Cc1c(-c2ccc([N+](=O)[O-])cc2)c(=O)oc2cc(O)ccc12 | – | > 200 µM | 21.4 µM
O=C(CSC(=S)N1CCCCC1)Nc1nc2c(s1)CCCC2 | – | > 38 µM | > 38 µM

SMILES | outcome | EC50 | IC50
Cc1ccc(S(=O)(=O)Nc2ccccc2NS(=O)(=O)c2ccc(C)cc2)cc1 | – | > 200 µM | 30.2 µM
N#Cc1c(N)nc(-c2ccc(Cl)cc2)c2c1-c1ccccc1S(=O)(=O)CC2 | – | > 100 µM | > 100 µM
CC(=O)CCCCn1c(=O)c2c(nc(Br)n2C)n(C)c1=O | – | > 200 µM | 52.5 µM
COc1ccc(/C=C(\C#N)C(=O)c2ccccc2)cc1 | – | > 97.7 µM | 56.2 µM
N.N.O=N[O-].O=N[O-].O=N[O-].O=N[O-].[Co+3].[Cs+] | inactive | – | –
C(=C\c1cc(CCc2nc3ccccc3[nH]2)[nH]n1)/c1ccccc1 | – | > 83.2 µM | > 83.2 µM
O=[N+]([O-])c1ccccc1S(=O)NCc1c(Cl)cccc1Cl (centres undefined) | – | > 200 µM | > 200 µM
CC(C)(C)OC(=O)CC(NC(=O)OC(C)(C)C)C(=O)N[C@@H]1CCCC[C@H]1C(=O)OCc1ccccc1 (some centres undefined) | – | > 200 µM | 10.5 µM
CCN1C(=O)c2cc(=O)[nH]c(O)c2C1C (centres undefined) | – | > 468 µM | > 468 µM
CC1(C)OC2OC(COC(=O)C=[N+]=[N-])C3OC(C)(C)OC3C2O1 (centres undefined) | – | > 200 µM | > 200 µM
O=[N+]([O-])c1ccc(NC(=S)N/N=C(\c2ccccc2)c2ccccn2)cc1 | – | > 2 µM | > 2 µM
COC[C@H](C)N=CN1CCc2ccccc2C1(Cc1ccccc1)Cc1ccccc1 | – | > 33.1 µM | > 33.1 µM
CCCCCC(=O)n1[nH]c(=O)n(-c2ccc(OC)cc2)c1=O | – | > 200 µM | > 200 µM
Cn1cc(NC(=O)Nc2cc(C(=O)Nc3cc(C(=O)Nc4ccc(P(=O)(O)O)c5cc(P(=O)(O)O)ccc45)n(C)c3)n(C)c2)cc1C(=O)Nc1cc(C(=O)Nc2ccc(P(=O)(O)O)c3cc(P(=O)(O)O)ccc23)n(C)c1 | – | > 49 µM | 31.6 µM
CC(C)CC(NC(=O)C(Cc1ccc(O)cc1)NC(=O)C(C)N)C(=O)NCC(=O)NC(CCCCN)C(=O)NC(CCCCN)C(=O)NC(C(=O)NC(C)C(=O)NC(C(=O)NC(CC(=O)O)C(=O)O)C(C)O)C(C)C (centres undefined) (H-AYLGKKVATD-OH; configuration not given here) | inactive | – | –
Nc1ccc(/C=C/c2ccnc3ccccc23)c(N)c1 | – | 0.0631 µM | 79.4 µM
C1CCC2(CC1)C[N+]1(CCCC1)C1(CCC1)O2 | – | > 200 µM | > 200 µM
CC1(c2ccccc2)N=C(C(N)=O)c2[nH]cnc2N1 (centres undefined) | – | > 200 µM | > 200 µM
O=C(O)c1nc2ccc(C(F)(F)F)cc2[nH]c1=O | – | > 200 µM | > 200 µM
COC(=S)SSC(=S)NCCNC(=S)SSC(=S)OC | – | > 200 µM | 9.55 µM
O=C(O)C1CCC(c2ccc(Cl)cc2Cl)=N1 (centres undefined) | – | > 200 µM | > 200 µM
CC12CCCC3(CC(=O)C(C)(C)C3C(=O)C1)C2 (centres undefined) | – | > 200 µM | > 200 µM

SMILES | outcome | EC50 | IC50
Cc1noc(C)c1-n1nc2ccc3nonc3c2n1 | – | > 200 µM | > 200 µM
NCCCN(CCCCN(CCCN)Cc1ccc2ccccc2c1)Cc1ccc2ccccc2c1 | – | > 200 µM | 1.07 µM
O=C1c2ccc(O)cc2OC(c2cc(O)c(O)c(O)c2)C1O (centres undefined) | – | > 200 µM | 11.7 µM
COC(=O)c1cc(C(=O)OC)c(C/C(=N/NC(N)=S)C(=O)Nc2c(C)cccc2C)nc1CC(=Nc1c(C)cccc1C)NNC(N)=S | – | > 200 µM | > 200 µM
Cc1n[nH]c(=O)n1Nc1ccccc1 | – | > 200 µM | > 200 µM
CS/C(=N\N=C(/C)c1ccccn1)SS/C(=N/N=C(\C)c1ccccn1)SC | – | > 2 µM | 0.00741 µM
CCSCCCCCCCCCCC(=O)OCC1OC(n2cc(C)c(=O)[nH]c2=O)CC1O (centres undefined) | – | > 56.2 µM | 26.3 µM
CO[C@H]1CC[C@@]2(C)C(CC[C@@]3(C)CC4=C[C@H]5C(C)(CO)C(=O)CCC5(C)[C@H]4CCC32)C1(C)C (some centres undefined) | – | > 100 µM | > 100 µM
O=C(CS)Nc1cccc(O)c1 | – | > 200 µM | > 200 µM
Cc1ncc([N+](=O)[O-])n1CCNC(=O)CCCn1cnc([N+](=O)[O-])n1 | – | > 200 µM | > 200 µM
Nc1ncnc2c1ncn2[C@H]1[C@H](CO)[C@@H](CO)C1(F)F | – | > 200 µM | 155 µM
O=C(Nc1ccc(Cl)cc1Cl)/C(Cl)=C1/Sc2ccccc2NC1=O | – | > 6.76 µM | > 6.76 µM
CC1CN=C(Nc2ccc(F)cc2F)S1 (centres undefined) | – | > 200 µM | > 200 µM
COCN1C(=O)[C@@H]2CCCN2C(=O)c2ccc([N+](=O)[O-])cc21 | – | > 200 µM | > 200 µM
C/C(CC(=O)Nc1ccccc1)=N\NC(N)=S | – | > 1000 µM | 170 µM
CCOC(=O)N1CCc2cc(OC)c(OC)c3c2C1CC3=O (centres undefined) | inactive | – | –
CCCNC(=O)N1CC(CN2CCN(c3ccccc3)CC2)O/C1=N/C(=O)Nc1ccccc1 (centres undefined) | – | > 200 µM | 77.6 µM
CNC(c1ccncc1)C(NC)c1ccncc1 (centres undefined) | – | > 200 µM | > 200 µM
CNc1ncnc2nc(C)c(C)nc12 | – | > 200 µM | > 200 µM
COc1cccc2c1OCC1Cc3ccccc3OC21 (centres undefined) | inactive | – | –
C=CCC1(c2ccc(OC)cc2)C=CC(=O)CC1 (centres undefined) | – | > 282 µM | 79.4 µM
NS(=O)(=O)c1ccc(NC(=O)/C=C\C(=O)O)cc1 | – | > 200 µM | > 200 µM

SMILES | outcome | EC50 | IC50
COc1ccccc1/C=c1\[nH]c(=O)/c(=C/c2ccccc2OC)[nH]c1=O | – | > 28.2 µM | > 28.2 µM
NNC(=S)N/N=C(/C(=O)Nc1ccc(Cl)c(Cl)c1)C(C1OC(=O)c2ccccc21)[N+](=O)[O-] (centres undefined) | – | > 501 µM | 257 µM
CC(NC(=O)C(CC(=O)OCc1ccccc1)NC(=O)OCc1ccccc1)c1ccccc1 (centres undefined) | – | > 200 µM | > 200 µM
O=[N+]([O-])c1ccccc1Sc1ccccc1 | – | > 100 µM | 79.4 µM
COc1cc(C)c2c(c1)CN1CN2Cc2cc(OC)cc(C)c21 | inactive | – | –
O/N=C1/C(=C/c2ccc(Oc3ccccc3)cc2)CCCC1C(NO)c1ccc(Oc2ccccc2)cc1 (centres undefined) | – | > 10.2 µM | > 10.2 µM
CC1=CC(=C(c2ccc(N)c(S(=O)(=O)O)c2)c2ccc(N)c(S(=O)(=O)O)c2)C=C(S(=O)(=O)O)C1=N | inactive | – | –
O=C1Oc2ccccc2C(=O)/C1=C/N1C(=O)CNC1=S | – | > 200 µM | > 200 µM
COC(=O)[C@H](COC(=O)/C=C/c1ccc(OC(C)=O)c(OC(C)=O)c1)NC(=O)/C=C/c1ccc(OC(C)=O)c(OC(C)=O)c1 | – | > 100 µM | 17.8 µM
CC1(C)C(=O)C(C)(C)C12SSC1(S2)C(C)(C)C(=O)C1(C)C | – | > 200 µM | 81.3 µM
CCN(CC)CCC(=O)/C=C/c1ccc(Cl)c(Cl)c1 | – | > 200 µM | 5.13 µM
CCC(=O)C(CCN1CCC2(CCCc3ccccc32)CC1)(c1ccccc1)c1ccccc1 | – | > 200 µM | 6.61 µM
c1ccc2[nH]c(-c3cscn3)nc2c1 | – | > 200 µM | > 200 µM
O=C1OC(c2ccccc2)(c2ccccc2)CC1CN1CCOCC1 (centres undefined) | – | > 57.5 µM | 12 µM
Cc1cc2c(cc1C)C(=O)C1(C2)Cc2cc3c(cc2C1=O)CCC3 (centres undefined) | – | > 100 µM | > 100 µM
N#Cc1ccc(/C=C2\CCc3ccccc3C2=O)cc1 | – | > 20 µM | > 20 µM
COC(=O)C1(NC(=O)C(N)CC(=O)O)C(C)C1C (centres undefined) | – | > 200 µM | > 200 µM
Cc1nnc2nc(-c3ccccc3)nc(-c3ccccc3)n12 | – | > 200 µM | > 200 µM
CCc1nnc(-c2nsc3ccccc23)s1 | – | > 145 µM | 126 µM
COc1ccc(NC(=O)CC(=O)NN2C(=O)/C(=C/c3ccc(N(CCC#N)CCC#N)cc3C)N=C2/C=C\c2ccccc2)cc1 | inactive | – | –
O=C(C=P(c1ccccc1)(c1ccccc1)c1ccccc1)c1ccccc1-c1ccccc1C(=O)C=P(c1ccccc1)(c1ccccc1)c1ccccc1 | – | > 1 µM | 0.107 µM
